Source: US8349824B2, “Triazolopyridine compounds” (Hoffmann-La Roche Inc., priority 2010, dated 2013)
pIC50: −log10 of the molar value.

Experiments:
[1] = target: T1, human PDE10A full length (Homo sapiens, UniProt Q9Y233); experiment: PDE10A Scintillation Proximity Assay (SPA), human PDE10A full length assay; format: biochemical; conditions: 50 nM cGMP + 50 nM [3H]-cGMP, 20 minutes at room temperature, read-out: PDE10A inhibition IC50
T1 construct: purchased Enzo Life Science, Lausen, Switzerland SE-534
T1 sequence (Q9Y233 1-779 isoform Q9Y233-1): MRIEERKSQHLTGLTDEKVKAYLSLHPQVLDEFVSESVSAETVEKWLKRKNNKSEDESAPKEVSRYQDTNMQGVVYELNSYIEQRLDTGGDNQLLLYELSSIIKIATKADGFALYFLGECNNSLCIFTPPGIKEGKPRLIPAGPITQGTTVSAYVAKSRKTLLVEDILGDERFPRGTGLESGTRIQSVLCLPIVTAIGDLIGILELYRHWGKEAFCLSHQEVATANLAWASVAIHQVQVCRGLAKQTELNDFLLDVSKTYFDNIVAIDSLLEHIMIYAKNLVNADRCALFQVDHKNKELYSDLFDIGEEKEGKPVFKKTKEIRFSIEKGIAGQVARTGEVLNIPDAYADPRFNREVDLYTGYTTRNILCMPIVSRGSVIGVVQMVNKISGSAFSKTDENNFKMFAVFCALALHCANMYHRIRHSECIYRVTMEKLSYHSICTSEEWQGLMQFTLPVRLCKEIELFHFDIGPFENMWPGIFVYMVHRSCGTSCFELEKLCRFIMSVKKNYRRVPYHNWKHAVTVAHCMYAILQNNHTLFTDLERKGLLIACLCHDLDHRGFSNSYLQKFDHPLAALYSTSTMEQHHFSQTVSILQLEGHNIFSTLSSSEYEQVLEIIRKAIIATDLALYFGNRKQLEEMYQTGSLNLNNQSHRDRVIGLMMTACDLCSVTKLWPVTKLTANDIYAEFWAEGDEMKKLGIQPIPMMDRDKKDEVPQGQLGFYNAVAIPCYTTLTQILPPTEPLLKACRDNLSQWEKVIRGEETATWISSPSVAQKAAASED
Method in brief: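 IC50 values come from radioactive counts across a range of inhibitor concentrations, using YSi-SPA beads in zinc sulphate as stop reagent. Full-length enzyme hydrolysed 50 nM cGMP with 50 nM [3H]-cGMP for 20 min at room temperature in pH 7.5 HEPES buffer containing 10 mM MgCl2 and 0.05 mg/ml BSA.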

Row | pIC50 [1] | melting point [°C] | Structure (SMILES)
1 | 8.69 | 210 to 211 | Cc1cc(-c2nc3cc(NC(=O)c4c(C(=O)N5CCC5)cnn4C)ccn3n2)ccn1 [Example 67, 4-(Azetidine-1-carbonyl)-2-methyl-2H-pyrazole-3-carboxylic acid [2-(2-methyl-pyridin-4-yl)-[1,2,4]triazolo[1,5-a]pyridin-7-yl]-amide]
2 | 7.95 | 262 to 264 | Cc1cncc(-c2nc3cc(NC(=O)c4c(C(=O)N5CCC5)cnn4C)ccn3n2)c1 [Example 68, 4-(Azetidine-1-carbonyl)-2-methyl-2H-pyrazole-3-carboxylic acid [2-(5-methyl-pyridin-3-yl)-[1,2,4]triazolo[1,5-a]pyridin-7-yl]-amide]
3 | 8.25 | 236 to 237 | CN(CCF)c1nc2cc(NC(=O)c3c(C(=O)N4CCC4)cnn3C)ccn2n1 [Example 70, 4-(Azetidine-1-carbonyl)-2-methyl-2H-pyrazole-3-carboxylic acid {2-[(2-fluoro-ethyl)-methyl-amino]-[1,2,4]triazolo[1,5-a]pyridin-7-yl}-amide]
4 | 8.21 | 144 to 145 | CN(CCF)c1nc2cc(NC(=O)c3c(C(=O)N4CCOCC4)cnn3C)ccn2n1 [Example 71, 2-Methyl-4-(morpholine-4-carbonyl)-2H-pyrazole-3-carboxylic acid {2-[(2-fluoro-ethyl)-methyl-amino]-[1,2,4]triazolo[1,5-a]pyridin-7-yl}-amide]
5 | 7.69 | 203 to 204 | CN(C)C(=O)c1cnn(C)c1C(=O)Nc1ccn2nc(N(C)CCF)nc2c1 [Example 72, 2-Methyl-2H-pyrazole-3,4-dicarboxylic acid 4-dimethylamide 3-({2-[(2-fluoro-ethyl)-methyl-amino]-[1,2,4]triazolo[1,5-a]pyridin-7-yl}-amide)]
6 | 7.94 | 145 to 147 | CCN(C)C(=O)c1cnn(C)c1C(=O)Nc1ccn2nc(N(C)CCF)nc2c1 [Example 73, 2-Methyl-2H-pyrazole-3,4-dicarboxylic acid 4-(ethyl-methyl-amide) 3-({2-[(2-fluoro-ethyl)-methyl-amino]-[1,2,4]triazolo[1,5-a]pyridin-7-yl}-amide)]
7 | 8.73 | 148 to 151 | CN(CCF)c1nc2cc(NC(=O)c3c(C(=O)N(C)C4CC4)cnn3C)ccn2n1 [Example 74, 2-Methyl-2H-pyrazole-3,4-dicarboxylic acid 4-(cyclopropyl-methyl-amide)3-({2-[(2-fluoro-ethyl)-methyl-amino]-[1,2,4]triazolo[1,5-a]pyridin-7-yl}-amide)]
8 | 9.19 | 258.1 | COc1ccccc1-c1nc2cc(NC(=O)c3c(C(=O)N4CCC4)cnn3C)ccn2n1 [Example 102, 4-(Azetidine-1-carbonyl)-2-methyl-2H-pyrazole-3-carboxylic acid [2-(2-methoxy-phenyl)-[1,2,4]triazolo[1,5-a]pyridin-7-yl]-amide]
9 | 9.51 | 239.2 | COc1ccccc1-c1nc2cc(NC(=O)c3c(C(=O)N(C)C4CC4)cnn3C)ccn2n1 [Example 103, 2-Methyl-2H-pyrazole-3,4-dicarboxylic acid 4-(cyclopropyl-methyl-amide)3-{[2-(2-methoxy-phenyl)-[1,2,4]triazolo[1,5-a]pyridin-7-yl]-amide}]
10 | 8.84 | 255 to 260 | CN(C)C(=O)c1cnn(C)c1C(=O)Nc1ccn2nc(-c3cccc(F)c3)nc2c1 [Example 104, 2-Methyl-2H-pyrazole-3,4-dicarboxylic acid 4-dimethylamide 3-{[2-(3-fluoro-phenyl)[1,2,4]triazolo[1,5-a]pyridin-7-yl]-amide}]
11 | 8.95 | 232 to 236 | Cn1ncc(C(=O)N2CCC2)c1C(=O)Nc1ccn2nc(-c3cccc(F)c3)nc2c1 [Example 105, 4-(Azetidine-1-carbonyl)-2-methyl-2H-pyrazole-3-carboxylic acid [2-(3-fluoro-phenyl)-[1,2,4]triazolo[1,5-a]pyridin-7-yl]-amide]
12 | 8.81 | 212 to 214 | Cn1ncc(C(=O)N2CCOCC2)c1C(=O)Nc1ccn2nc(-c3cccc(F)c3)nc2c1 [Example 106, 2-Methyl-4-(morpholine-4-carbonyl)-2H-pyrazole-3-carboxylic acid [2-(3-fluoro-phenyl)-[1,2,4]triazolo[1,5-a]pyridin-7-yl]-amide]
13 | 8.33 | 255 to 257 | COC1CN(C(=O)c2cnn(C)c2C(=O)Nc2ccn3nc(-c4cccc(F)c4)nc3c2)C1 [Example 107, 4-(3-Methoxy-azetidine-1-carbonyl)-2-methyl-2H-pyrazole-3-carboxylic acid [2-(3-fluoro-phenyl)-[1,2,4]triazolo[1,5-a]pyridin-7-yl]-amide]
14 | 8.43 | 249 to 251 | CN(C)C(=O)c1cnn(C)c1C(=O)Nc1ccn2nc(-c3cccnc3F)nc2c1 [Example 109, N5-(2-(2-fluoropyridin-3-yl)-[1,2,4]triazolo[1,5-a]pyridin-7-yl)-N4,N4,1-trimethyl-1H-pyrazole-4,5-dicarboxamide]
15 | 8.18 | 267 to 269 | Cn1ncc(C(=O)N2CCOCC2)c1C(=O)Nc1ccn2nc(-c3cccnc3F)nc2c1 [Example 111, 2-Methyl-4-(morpholine-4-carbonyl)-2H-pyrazole-3-carboxylic acid [2-(2-fluoro-pyridin-3-yl)-[1,2,4]triazolo[1,5-a]pyridin-7-yl]-amide]
16 | 7.24 | > 300 | Cn1ncc(C(=O)N2CC3(COC3)C2)c1C(=O)Nc1ccn2nc(N3CCOCC3)nc2c1 [Example 112, 2-Methyl-4-(2-oxa-6-aza-spiro[3.3]heptane-6-carbonyl)-2H-pyrazole-3-carboxylic acid (2-morpholin-4-yl-[1,2,4]triazolo[1,5-a]pyridin-7-yl)-amide]
17 | 8.25 | 233 to 236 | CN(CCF)c1nc2cc(NC(=O)c3c(C(=O)N4CC(F)C4)cnn3C)ccn2n1 [Example 114, 4-(3-Fluoro-azetidine-1-carbonyl)-2-methyl-2H-pyrazole-3-carboxylic acid {2-[(2-fluoro-ethyl)-methyl-amino]-[1,2,4]triazolo[1,5-a]pyridin-7-yl}-amide]
18 | 7.83 | > 280 | Cn1ncc(C(=O)N2CCOCC2)c1C(=O)Nc1ccn2nc(-c3ccnc(F)c3)nc2c1 [Example 117, N-(2-(2-fluoropyridin-4-yl)-[1,2,4]triazolo[1,5-a]pyridin-7-yl)-1-methyl-4-(morpholine-4-carbonyl)-1H-pyrazole-5-carboxamide]
19 | 8.17 | > 280 | Cn1ncc(C(=O)N2CCC2)c1C(=O)Nc1ccn2nc(-c3ccnc(F)c3)nc2c1 [Example 118, 4-(Azetidine-1-carbonyl)-2-methyl-2H-pyrazole-3-carboxylic acid [2-(2-fluoro-pyridin-4-yl)-[1,2,4]triazolo[1,5-a]pyridin-7-yl]-amide]
20 | 8.92 | 263.9 | Cn1ncc(C(=O)N2CCC2)c1C(=O)Nc1ccn2nc(-c3cccc(F)n3)nc2c1 [Example 119, 4-(Azetidine-1-carbonyl)-2-methyl-2H-pyrazole-3-carboxylic acid [2-(6-fluoro-pyridin-2-yl)-[1,2,4]triazolo[1,5-a]pyridin-7-yl]-amide]
21 | 8.88 | 264.4 | CN(C)C(=O)c1cnn(C)c1C(=O)Nc1ccn2nc(-c3cccc(F)n3)nc2c1 [Example 120, 2-Methyl-2H-pyrazole-3,4-dicarboxylic acid 4-dimethylamide 3-{[2-(6-fluoro-pyridin-2-yl)-[1,2,4]triazolo[1,5-a]pyridin-7-yl]-amide}]
22 | 9.22 | 274.3 | CN(C(=O)c1cnn(C)c1C(=O)Nc1ccn2nc(N3CCCC3)nc2c1)C1CC1 [Example 123, 2-Methyl-2H-pyrazole-3,4-dicarboxylic acid 4-(cyclopropyl-methyl-amide)3-[(2-pyrrolidin-1-yl-[1,2,4]triazolo[1,5-a]pyridin-7-yl)-amide]]
23 | 9.07 | 323.1 | CCN(C)C(=O)c1cnn(C)c1C(=O)Nc1ccn2nc(N3CCCC3)nc2c1 [Example 124, 2-Methyl-2H-pyrazole-3,4-dicarboxylic acid 4-(ethyl-methyl-amide)3-[(2-pyrrolidin-1-yl-[1,2,4]triazolo[1,5-a]pyridin-7-yl)-amide]]
